Bounds are passed on as bounds.

In the experiment the test system is Human Umbilical Vein Endothelial cells (VEGF-stimulated HUVEC proliferation). Put plainly: HUVEC Proliferation Assay (VEGF-stimulated). The class given is cell-based. Particulars: VEGF 50 ng/mL, 72 h incubation, CyQuant readout, read-out: inhibited VEGF-stimulated HUVEC proliferation at a level below (IC50). Summed up:
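Pooled-donor HUVECs (passage 2–3) seeded in DMEM+10% FBS for 22 h, then pre-treated 2–3 h with five-point, five-fold compound dilutions (0.25% DMSO final). Stimulated with 50 ng/mL VEGF (bFGF 20 ng/mL on separate plates) for 72 h at 37 °C. CyQuant fluorescence (485/530 nm) after freeze-thaw; IC50 from 4-parameter fit.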
Take `O=C(Nc1ccc2c(C(F)(F)F)cc(=O)oc2c1)c1cccnc1Nc1ccc2cn[nH]c2c1` [Example 120, 2-(1H-Indazol-6-ylamino)-N-(2-oxo-4-trifluoromethyl-2H-chromen-7-yl)-nicotinamide]: the IC50 is below 50 nM.

Turning to `CN1CC=C(c2cc(NC(=O)c3cccnc3Nc3ccc4cn[nH]c4c3)cc(C(F)(F)F)c2)CC1` [Example 121, 2-(1H-Indazol-6-ylamino)-N-[3-(1-methyl-1,2,3,6-tetrahydro-pyridin-4-yl)-5-trifluoromethyl-phenyl]-nicotinamide], the IC50 is below 50 nM. With `O=C(Nc1ccc(C(F)(F)C(F)(F)F)cc1)c1cccnc1Nc1ccc2cn[nH]c2c1` [Example 123, 2-(1H-Indazol-6-ylamino)-N-(4-pentafluoroethyl-phenyl)-nicotinamide] the figure was below 50 nM. With `CC(C)(C)c1ccc(NC(=O)c2cccnc2Nc2ccc3cn[nH]c3c2)cc1NC1CCNCC1` [Example 124, N-[4-tert-Butyl-3-(piperidin-4-ylamino)-phenyl]-2-(1H-indazol-6-ylamino)-nicotinamide] the figure was below 50 nM. The result for `O=C(Nc1cc(CN2CCNCC2)cc(C(F)(F)F)c1)c1cccnc1Nc1ccc2cn[nH]c2c1` [Example 125, 2-(1H-Indazol-6-ylamino)-N-(3-piperazin-1-ylmethyl-5-trifluoromethyl-phenyl)-nicotinamide] reads below 50 nM; that for `CC1(C)CNCc2cc(NC(=O)c3cccnc3Nc3ccc4cn[nH]c4c3)ccc21` [Example 126, N-(4,4-Dimethyl-1,2,3,4-tetrahydro-isoquinolin-7-yl)-2-(1H-indazol-6-ylamino)-nicotinamide], below 50 nM; that for `CC1(C)CC(=O)Nc2cc(NC(=O)c3cccnc3Nc3ccc4cn[nH]c4c3)ccc21` [Example 575, N-(4,4-Dimethyl-2-oxo-1,2,3,4-tetrahydro-quinolin-7-yl)-2-(1H-indazol-6-ylamino)-nicotinamide], below 50 nM. Take `CN1CCC[C@@H]1COc1cc(NC(=O)c2cccnc2Nc2ccc3cn[nH]c3c2)cc(C(F)(F)F)c1` [Example 577, 2-(1H-Indazol-6-ylamino)-N-(3-((((2R)-1-methyl-2-pyrrolidinyl)methyl)oxy)-5-(trifluoromethyl)phenyl)-3-pyridinecarboxamide]: the IC50 was below 50 nM. In the case of `CC(=O)N1CCC[C@@H]1COc1cc(NC(=O)c2cccnc2Nc2ccc3cn[nH]c3c2)cc(C(F)(F)F)c1` [Example 580, N-(3-((((2R)-1-Acetyl-2-pyrrolidinyl)methyl)oxy)-5-(trifluoromethyl)phenyl)-2-(1H-indazol-6-ylamino)-3-pyridinecarboxamide], the IC50 is below 50 nM. As to `O=C(Nc1cc(NC(=O)c2cccnc2Nc2ccc3cn[nH]c3c2)cc(C(F)(F)F)c1)O[C@H]1CCOC1` [Example 581, (3S)-Tetrahydro-3-furanyl 3-(((2-(1H-indazol-6-ylamino)-3-pyridinyl)carbonyl)amino)-5-(trifluoromethyl)phenylcarbamate], the IC50 was below 50 nM. With `CC(C)N1CCC[C@H]1COc1cc(NC(=O)c2cccnc2Nc2ccc3cn[nH]c3c2)cc(C(F)(F)F)c1` [Example 583, 2-(1H-Indazol-6-ylamino)-N-(3-((((2S)-1-(1-methylethyl)-2-pyrrolidinyl)methyl)oxy)-5-(trifluoromethyl)phenyl)-3-pyridinecarboxamide] the figure was below 50 nM.

Turning to `CS(=O)(=O)Nc1cc(NC(=O)c2cccnc2Nc2ccc3cn[nH]c3c2)cc(C(F)(F)F)c1` [Example 586, 2-(1H-Indazol-6-ylamino)-N-(3-((methylsulfonyl)amino)-5-(trifluoromethyl)phenyl)-3-pyridinecarboxamide], the IC50 was below 50 nM. `CC(C)(C)c1ccc(NC(=O)c2cccnc2Nc2ccc3cn[nH]c3c2)cc1NC(=O)CN1CCCC1` [Example 587, N-(4-(1,1-Dimethylethyl)-3-((1-pyrrolidinylacetyl)amino)phenyl)-2-(1H-indazol-6-ylamino)-3-pyridinecarboxamide]: the IC50 is below 50 nM. The result for `CC(C)(C)c1ccc(NC(=O)c2cccnc2Nc2ccc3cn[nH]c3c2)cc1NC(=O)CN1CCOCC1` [Example 588, N-(4-(1,1-Dimethyl)-3-((4-morpholinylacetyl)amino)phenyl)-2-(1H-indazol-6-ylamino)-3-pyridinecarboxamide] reads below 50 nM; that for `CC1(C)CC(=O)Nc2nc(NC(=O)c3cccnc3Nc3ccc4cn[nH]c4c3)ccc21` [Example 593, N-(5,5-Dimethyl-7-oxo-5,6,7,8-tetrahydro-[1,8]naphthyridin-2-yl)-2-(1H-indazol-6-ylamino)-nicotinamide], below 50 nM. Turning to `CC1(C)CNCc2cc(NC(=O)c3cccnc3Nc3ccc4[nH]c(=O)[nH]c4c3)ccc21` [Example 594, N-(4,4-Dimethyl-1,2,3,4-tetrahydro-isoquinolin-7-yl)-2-(2-oxo-2,3-dihydro-1H-benzoimidazol-5-ylamino)-nicotinamide], the IC50 is below 50 nM. The result for `CC(C)(C)c1ccc(NC(=O)c2cccnc2Nc2cccc3c2CNC3=O)cc1` [Example 600, N-(4-tert-Butyl-phenyl)-2-(1-oxo-2,3-dihydro-1H-isoindol-4-ylamino)-nicotinamide] reads below 50 nM. On to `O=C(Nc1ccc(C(F)(F)C(F)(F)F)cc1)c1cccnc1Nc1cccc2c1CNC2=O` [Example 602, 2-(1-Oxo-2,3-dihydro-1H-isoindol-4-ylamino)-N-(4-pentafluoroethyl-phenyl)-nicotinamide], for which the IC50 is below 50 nM. In the case of `CN1CCC(C(C)(C)c2ccc(NC(=O)c3cccnc3Nc3cccc4c3CNC4=O)cc2)CC1` [Example 603, N-{4-[1-Methyl-1-(1-methyl-piperidin-4-yl)-ethyl]-phenyl}-2-(1-oxo-2,3-dihydro-1H-isoindol-4-ylamino)-nicotinamide], the IC50 is below 50 nM.

For the compound `O=C(Nc1ccc(C(OC[C@@H]2CCCN2)(C(F)(F)F)C(F)(F)F)cc1)c1cccnc1Nc1ccc2cn[nH]c2c1` [Example 607, 2-(1H-Indazol-6-ylamino)-N-{4-[2,2,2-trifluoro-1-(pyrrolidin-2-ylmethoxy)-1-trifluoromethyl-ethyl]-phenyl}-nicotinamide], the IC50 is below 50 nM. As for `O=C(Nc1ccc(C(O)(C(F)(F)F)C(F)(F)F)cc1)c1cccnc1Nc1cccc2c1CNC2=O` [Example 608, 2-(1-Oxo-2,3-dihydro-1H-isoindol-4-ylamino)-N-[4-(2,2,2-trifluoro-1-hydroxy-1-trifluoromethyl-ethyl)-phenyl]-nicotinamide], the IC50 was below 50 nM. With `O=C(Nc1cccc(C(O)(C(F)(F)F)C(F)(F)F)c1)c1cccnc1Nc1cccc2c1CNC2=O` [Example 609, 2-(1-Oxo-2,3-dihydro-1H-isoindol-4-ylamino)-N-[3-(2,2,2-trifluoro-1-hydroxy-1-trifluoromethyl-ethyl)-phenyl]-nicotinamide], the IC50 was below 50 nM. Consider `CN(C)CC(=O)Nc1cc(NC(=O)c2cccnc2Nc2ccc3cn[nH]c3c2)ccc1C(C)(C)C` [Example 613, N-(4-(1,1-Dimethylethyl)-3-((N,N-dimethylglycyl)amino)phenyl)-2-(1H-indazol-6-ylamino)-3-pyridinecarboxamide], for which the IC50 was below 50 nM.

(Values after patent US7102009B2, “Substituted amine derivatives and methods of use” (Amgen Inc., priority 2001, dated 2006).)
